Patent US9174980B2, “Heterocyclic compounds as inhibitors of leukotriene production” (Boehringer Ingelheim International GmbH, priority 2012, dated 2015)

What was measured:
[1] = molecular target: T1, recombinant human FLAP protein (Homo sapiens, UniProt P20292); assay: FLAP binding assay (Scintillation Proximity Assay, displacement of [125I]L-691,831); conditions: read-out: Human FLAP SPA Binding (IC50 nM)
T1 construct: made in house; host or cells: Sf9 insect cells (membrane fraction, 100,000 x g pellet)
T1 sequence (P20292 1-161): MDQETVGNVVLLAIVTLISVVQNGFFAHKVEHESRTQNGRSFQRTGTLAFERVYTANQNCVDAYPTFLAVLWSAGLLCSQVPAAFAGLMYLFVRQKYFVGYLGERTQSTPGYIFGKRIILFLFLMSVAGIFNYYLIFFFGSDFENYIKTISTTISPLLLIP
Outline: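 Membranes from sf9 cells expressing recombinant human FLAP (5 μg/well) on WGA SPA beads were incubated with compound and 0.08 nM [125I]L-691,831 in Tris pH 7.5 binding buffer, shaken 2 h. Displacement read by scintillation proximity; non-specific binding set with 10 μM unlabelled L-691,831.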

[2] = tested on: synthesis of LTB4 in human whole blood; assay: Human whole blood assay (calcimycin-stimulated LTB4 synthesis); assay type: cell-based; conditions: Homo sapiens; read-out: Human Whole Blood LTB4 Assay for FLAP (IC50 nM)
Outline: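 LTB4 in plasma was quantified by HTRF immunoassay. Before that, compound-treated heparinized whole blood (15 min, 37 °C) received 20 μM final calcimycin for a further 30 min at 37 °C, followed by centrifugation at 1500×g.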

Compound	IC50 [1]	IC50 [2]
Cc1cc(C2(c3c[nH]c4ccccc34)CCC2)ccc1-c1cnc(N)nc1 [Example 151, 5-{4-[1-(1H-indol-3-yl)cyclobutyl]-2-methylphenyl}pyrimidin-2-amine]	7 nM	890 nM
Cn1cc(C(c2ccc(-c3cnc(N)nc3)cc2)C(C)(C)C)c2ccccc21 (stereo not drawn) [Example 154, 5-{4-[2,2-dimethyl-1-(1-methyl-1H-indol-3-yl)propyl]phenyl}pyrimidin-2-amine]	22 nM	> 5000 nM
Cn1cc(C(c2ccc(-c3cnc(N)nc3)cn2)C(C)(C)C)c2ccccc21 (stereo not drawn) [Example 156, 5-{6-[2,2-dimethyl-1-(1-methyl-1H-indol-3-yl)propyl]pyridin-3-yl}pyrimidin-2-amine]	260 nM	> 5000 nM
Cc1ccc(-c2csc(C3(c4ccc(-c5cnc(N)nc5)cc4)CCC3)n2)cn1 [Example 157, 5-(4-{1-[4-(6-methylpyridin-3-yl)-1,3-thiazol-2-yl]cyclobutyl}phenyl)pyrimidin-2-amine]	16 nM	2600 nM
Cc1ccc(-c2cc(C(C)(c3ccc(-c4cnc(N)nc4)nc3)C(C)C)[nH]n2)cn1 (stereo not drawn) [Example 160, 5-(5-{3-methyl-2-[5-(6-methylpyridin-3-yl)-1H-pyrazol-3-yl]butan-2-yl}pyridin-2-yl)pyrimidin-2-amine]	8.4 nM	1400 nM
CC(C)C(C)(c1ccc(-c2cnc(N)nc2)nc1)c1cc(-c2cnn(C)c2)on1 (stereo not drawn) [Example 161, 5-(5-{3-methyl-2-[5-(1-methyl-1H-pyrazol-4-yl)-1,2-oxazol-3-yl]butan-2-yl}pyridin-2-yl)pyrimidin-2-amine]	8.2 nM	160 nM
COC(=O)c1c[nH]cc1C1(c2ccc(-c3cnc(N)nc3)cc2)CCC1 [Example 162, methyl 4-[1-[4-(2-aminopyrimidin-5-yl)phenyl]cyclobutyl]-1H-pyrrole-3-carboxylate]	210 nM	1500 nM
COC(=O)c1cc(-c2ccc(F)cc2)c(C2(c3ccc(-c4cnc(N)nc4)cc3)CCC2)[nH]1 [Example 166, methyl 5-{1-[4-(2-aminopyrimidin-5-yl)phenyl]cyclobutyl}-4-(4-fluorophenyl)-1H-pyrrole-2-carboxylate]	72 nM	3600 nM
COC(=O)c1ccc(C2(c3ccc(-c4cnc(N)nc4)cc3)CCC2)[nH]1 [Example 167, methyl 5-[1-[4-(2-aminopyrimidin-5-yl)phenyl]cyclobutyl]-1H-pyrrole-2-carboxylate]	59 nM	3200 nM
CC(C)C(C)(c1ccc(-c2cnc(N)nc2)nc1)c1nc(-c2cnn(C)c2)co1 (stereo not drawn) [Example 168, 5-(5-{3-methyl-2-[4-(1-methyl-1H-pyrazol-4-yl)-1,3-oxazol-2-yl]butan-2-yl}pyridin-2-yl)pyrimidin-2-amine]	87 nM	390 nM
Nc1ncc(-c2ccc(C3(c4cccn4S(=O)(=O)c4ccccc4)CCC3)cc2)cn1 [Example 169, 5-(4-{1-[1-(phenylsulfonyl)-1H-pyrrol-2-yl]cyclobutyl}phenyl)pyrimidin-2-amine]	110 nM	2000 nM
CN(C)C(=O)Cn1cc(-c2cnc(C(C)(c3ccc(-c4cnc(N)nc4)cc3)C3CC3)s2)cn1 (stereo not drawn) [Example 170, 2-[4-[2-[1-[4-(2-aminopyrimidin-5-yl)phenyl]-1-cyclopropyl-ethyl]thiazol-5-yl]pyrazol-1-yl]-N,N-dimethyl-acetamide]	10 nM	120 nM
Cn1cc(-c2coc(C(C)(c3ccc(-c4cnc(N)nc4)cc3)C3CC3)n2)cn1 (stereo not drawn) [Example 171, 5-(4-{1-cyclopropyl-1-[4-(1-methyl-1H-pyrazol-4-yl)-1,3-oxazol-2-yl]ethyl}phenyl)pyrimidin-2-amine]	7.4 nM	140 nM
CN(C)CCn1cc(-c2cnc(C(C)(c3ccc(-c4cnc(N)nc4)cc3)C3CC3)s2)cn1 (stereo not drawn) [Example 172, 5-{4-[1-cyclopropyl-1-(5-{1-[2-(dimethylamino)ethyl]-1H-pyrazol-4-yl}-1,3-thiazol-2-yl)ethyl]phenyl}pyrimidin-2-amine]	8.2 nM	73 nM
Cn1cc(-c2cnc(C(C)(c3ccc(-c4cnc(N)nc4)cc3)C3CC3)s2)cn1 (stereo not drawn) [Example 173, 5-(4-{1-cyclopropyl-1-[5-(1-methyl-1H-pyrazol-4-yl)-1,3-thiazol-2-yl]ethyl}phenyl)pyrimidin-2-amine]	7.7 nM	89 nM
COC(=O)c1[nH]cc(Br)c1C1(c2ccc(-c3cnc(N)nc3)cc2)CCC1 [Example 174, methyl 3-{1-[4-(2-aminopyrimidin-5-yl)phenyl]cyclobutyl}-4-bromo-1H-pyrrole-2-carboxylate]	17 nM	650 nM
CC(c1ccc(-c2cnc(N)nc2)cc1)(c1cc(O)n(-c2ccccc2)n1)C1CC1 (stereo not drawn) [Example 175, 3-{1-[4-(2-aminopyrimidin-5-yl)phenyl]-1-cyclopropylethyl}-1-phenyl-1H-pyrazol-5-ol]	10 nM	1100 nM
COC(=O)c1cc(-c2cnn(C)c2)c(C2(c3ccc(-c4cnc(N)nc4)cc3)CCC2)[nH]1 [Example 176, methyl 5-{1-[4-(2-aminopyrimidin-5-yl)phenyl]cyclobutyl}-4-(1-methyl-1H-pyrazol-4-yl)-1H-pyrrole-2-carboxylate]	150 nM	2900 nM
COC(=O)c1cc(Br)c(C2(c3ccc(-c4cnc(N)nc4)cc3)CCC2)n1C [Example 177, methyl 5-{1-[4-(2-aminopyrimidin-5-yl)phenyl]cyclobutyl}-4-bromo-1-methyl-1H-pyrrole-2-carboxylate]	42 nM	1800 nM
COC(=O)c1cc(-c2ccc(F)nc2)c(C2(c3ccc(-c4cnc(N)nc4)cc3)CCC2)[nH]1 [Example 179, methyl 5-{1-[4-(2-aminopyrimidin-5-yl)phenyl]cyclobutyl}-4-(6-fluoropyridin-3-yl)-1H-pyrrole-2-carboxylate]	200 nM	4400 nM
CN(C)C(=O)Cn1cc(-c2cnc(C3(c4ccc(-c5cnc(N)nc5)cc4)CCC3)s2)cn1 [Example 180, 2-[4-(2-{1-[4-(2-aminopyrimidin-5-yl)phenyl]cyclobutyl}-1,3-thiazol-5-yl)-1H-pyrazol-1-yl]-N,N-dimethylacetamide]	8.9 nM	270 nM
CN(C)CCn1cc(-c2cnc(C3(c4ccc(-c5cnc(N)nc5)cc4)CCC3)s2)cn1 [Example 181, 5-{4-[1-(5-{1-[2-(dimethylamino)ethyl]-1H-pyrazol-4-yl}-1,3-thiazol-2-yl)cyclobutyl]phenyl}pyrimidin-2-amine]	6.1 nM	110 nM
COC(=O)c1cc(-c2cnn(C)c2)c(C2(c3ccc(-c4cnc(N)nc4)cc3)CCC2)n1C [Example 182, methyl 5-{1-[4-(2-aminopyrimidin-5-yl)phenyl]cyclobutyl}-1-methyl-4-(1-methyl-1H-pyrazol-4-yl)-1H-pyrrole-2-carboxylate]	38 nM	1400 nM

Continued by falling IC50 [1], values first:

IC50 [1]	IC50 [2]	Compound
6.1 nM	160 nM	COC(=O)c1[nH]c2ccccc2c1C1(c2ccc(-c3cnc(N)nc3)cc2)CCC1 [Example 165, methyl 3-{1-[4-(2-aminopyrimidin-5-yl)phenyl]cyclobutyl}-1H-indole-2-carboxylate]
5.7 nM	590 nM	Nc1ncc(-c2ccc(C3(c4c(-c5ccc(F)cc5)[nH]c5ccccc45)CCC3)cc2)cn1 [Example 163, 5-(4-{1-[2-(4-fluorophenyl)-1H-indol-3-yl]cyclobutyl}phenyl)pyrimidin-2-amine]
5.2 nM	430 nM	Cc1ccc(-c2cc(C3(c4ccc(-c5cnc(N)nc5)cc4)CCC3)no2)cn1 [Example 158, 5-(4-{1-[5-(6-methylpyridin-3-yl)-1,2-oxazol-3-yl]cyclobutyl}phenyl)pyrimidin-2-amine]
3.7 nM	93 nM	Cn1cc(-c2coc(C3(c4ccc(-c5cnc(N)nc5)cc4)CCC3)n2)cn1 [Example 164, 5-(4-{1-[4-(1-methyl-1H-pyrazol-4-yl)-1,3-oxazol-2-yl]cyclobutyl}phenyl)pyrimidin-2-amine]
3.1 nM	1100 nM	COc1ncccc1-c1nnc(C2(c3ccc(-c4cnc(N)nc4)cc3)CCC2)[nH]1 [Example 153, 5-(4-{1-[5-(2-methoxypyridin-3-yl)-4H-1,2,4-triazol-3-yl]cyclobutyl}phenyl)pyrimidin-2-amine]
2.9 nM	81 nM	Nc1ncc(-c2ccc(C3(c4ncc(-c5cn[nH]c5)s4)CCC3)cc2)cn1 [Example 178, 5-(4-{1-[5-(1H-pyrazol-4-yl)-1,3-thiazol-2-yl]cyclobutyl}phenyl)pyrimidin-2-amine]
2.5 nM	370 nM	Nc1ncc(-c2ccc(C3(c4c[nH]c5c(=O)[nH]ccc45)CCC3)cc2)cn1 [Example 155]
1.9 nM	43 nM	COCCNC(=O)c1cccc2c(C3(c4ccc(-c5cnc(N)nc5)cc4)CCC3)c[nH]c12 [Example 159]
1.7 nM	55 nM	Cc1nccc2c(C3(c4ccc(-c5cnc(N)nc5)cc4)CCC3)c[nH]c12 [Example 152, 5-{4-[1-(7-methyl-1H-pyrrolo[2,3-c]pyridin-3-yl)cyclobutyl]phenyl}pyrimidin-2-amine]
1.5 nM	> 5000 nM	Nc1ncc(-c2ccc(C3(c4c[nH]c5c(C(=O)O)cccc45)CCC3)cc2)cn1 [Example 150, 3-{1-[4-(2-aminopyrimidin-5-yl)phenyl]cyclobutyl}-1H-indole-7-carboxylic acid]
